Results published in PMC6709783, “Structural Basis for Allosteric Ligand Recognition in the Human CC Chemokine Receptor 7” (Cell, 2019).

Key:
CCR5 receptor = details: ref Knepp et al., 2011; cited from earlier work
human CCR7 = target: T1, human CCR7 (Homo sapiens, UniProt P32248, L145W); assay: Thermofluor stability assay (thermal shift, CPM dye) with purified CCR7-L145W; format: binding; details: Figure 4B; for thermo-stabilizing effect on CCR7 (in words): known chemokine receptor ligands tested for selectivity of the pocket
T1 construct: enhanced green fluorescent protein (eGFP) (C); decahistidine-tag (His10) (C); made in house; host or cells: Sf9 insect cells (baculovirus)
T1 sequence (P32248 25-348 L145W): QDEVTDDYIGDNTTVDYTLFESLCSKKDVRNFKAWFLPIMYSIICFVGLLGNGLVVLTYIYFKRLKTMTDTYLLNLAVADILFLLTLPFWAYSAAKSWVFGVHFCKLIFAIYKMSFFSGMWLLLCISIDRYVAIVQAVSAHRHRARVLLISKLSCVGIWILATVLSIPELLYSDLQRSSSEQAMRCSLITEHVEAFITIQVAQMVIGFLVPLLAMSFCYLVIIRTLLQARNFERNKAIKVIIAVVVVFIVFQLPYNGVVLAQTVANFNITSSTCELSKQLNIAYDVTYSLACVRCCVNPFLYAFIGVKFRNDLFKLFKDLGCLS
Description: The plate was sealed and incubated for 30 min on ice. A 1:100 (v/v) working solution of the CPM (N-[4-(7-diethylamino-4-methyl-3-coumarinyl)phenyl]maleimide) dye stock (3 mg/mL in DMSO) was prepared and 5.14 μL of this solution were added to each well and mixed thoroughly. Out of each well, 3 × 20 μL were distributed into 0.1 mL Rotor-Gene Q tubes (QIAGEN). […] The gain set was determined at the beginning of the run. The melting temperature (Tm) was calculated from the point of inflection.
All liquid-handling steps were performed using a Bravo automated liquid handling platform and a 96LT head.
Melting temperatures (Tm) in the thermofluor stability assays were calculated and analyzed by automated scripts based on a fit to the Boltzmann equation. Details on significance levels and number of experiments are given in the corresponding figure legends.

CCR7 = target: T2, CCR7 (Homo sapiens, UniProt P32248); assay: Cellular arrestin recruitment assay (PathHunter eXpress CCR7 CHO-K1 β-Arrestin); format: cell-based; details: agonist concentration used for challenge
T2 construct: host or cells: CHO-K1 (PathHunter eXpress CCR7 β-Arrestin)
T2 sequence (P32248 25-378): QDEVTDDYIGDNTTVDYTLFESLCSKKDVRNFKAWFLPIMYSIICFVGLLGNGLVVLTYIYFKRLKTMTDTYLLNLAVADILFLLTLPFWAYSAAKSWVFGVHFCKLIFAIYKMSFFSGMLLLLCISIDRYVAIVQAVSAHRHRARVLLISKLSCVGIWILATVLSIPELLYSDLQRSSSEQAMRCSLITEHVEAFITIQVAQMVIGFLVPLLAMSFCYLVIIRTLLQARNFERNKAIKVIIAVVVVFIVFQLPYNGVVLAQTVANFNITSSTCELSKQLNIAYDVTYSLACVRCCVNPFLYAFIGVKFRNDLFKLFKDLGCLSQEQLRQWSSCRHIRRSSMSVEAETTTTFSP
Text: Microplates were read following signal generation with a PerkinElmer Envision™ instrument for chemiluminescent signal detection.

[1] = target: T3, CCR7 in PathHunter eXpress CCR7 CHO-K1 β-Arrestin cells (human, UniProt P32248 25-378); assay: cell-based or functional assay
T3 sequence (looked up): T2 sequence (P32248 25-378)

Molecule: Maraviroc
- stabilizing effect on CCR5 (CCR5 receptor): up to 18.9 °C
- thermo-stabilizing effect on CCR7 (in words) (human CCR7): did not affect CCR7

Molecule: CCOc1ccc(NC(=O)C2CCN(C3=NS(=O)(=O)C(c4ccc(OC)cc4)=C3C)CC2)cc1 [CS-1]
- stabilizing effect on CCR7 (human CCR7; hit from virtual and automated thermofluor screening (50 μM ligand)): 2.4 °C

Molecule: CC1(C)CN2C(CSC(=NC3CCCCC3)NC3CCCCC3)=CSC2=N1 [IT1t]
- thermo-stabilizing effect on CCR7 (in words) (human CCR7): did not affect CCR7

Molecule: CCL19: native chemokine agonist of CCR7 (human CCL19)
- EC80 concentration, arrestin recruitment (CCR7): 57 nM

Molecule: CC(C)Cc1ccc([C@@H](C)C(=O)NS(C)(=O)=O)cc1 [Reparixin]
- thermo-stabilizing effect on CCR7 (in words) (human CCR7): Neither did the CXCR2 antagonist Danirixin nor the CXCR1 and CXCR2 antagonist Reparixin stabilize CCR7

B1: human CCL19 (ligand, UniProt Q99731 22-98, looked up)
chain: GTNDAEDCCLSVTQKPIPGYIVRNFHYLLIKDGCRVPAVVFTTLRGRQLCAPPDQPWVERIIQRLQRTSAKMKRRSS
modifications: radioactive label (2200 Ci/mmole) on the labeled part of the mixture
- arrestin recruitment in PathHunter eXpress CCR7 CHO-K1 β-Arrestin cells, dose response of CCL19 (EC50) [1]: 12 nM
